Measurements from article PMC4555095, “Inhibitory effects of magnolol and honokiol on human calcitonin aggregation” (Scientific Reports, 2015).

Molecular target: T1, Human calcitonin (hCT) (Homo sapiens, UniProt P01258)
T1 construct: gene CALCA; mature 32-residue calcitonin peptide cut from the calcitonin precursor; disulfide Cys-1/Cys-7, C terminus amidated; no tag
T1 sequence (P01258 85-116 limits assumed): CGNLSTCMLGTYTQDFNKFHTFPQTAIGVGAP
Experiment: isothermal titration calorimetry
Assay type: binding
Settings: read-out: Kb

Structure (SMILES) | Kd
C=CCc1ccc(O)c(-c2ccc(O)c(CC=C)c2)c1 [honokiol] | 6.49 µM
C=CCc1ccc(O)c(-c2cc(CC=C)ccc2O)c1 [magnolol] | 2.62 µM
